Measured values from ChEMBL document CHEMBL1641512, “Lyconadins D and E, and complanadine E, new Lycopodium alkaloids from Lycopodium complanatum” (Bioorg Med Chem, 2011).
Active and inactive are the calls of the source. No cut-off for these calls is given here.

Assays:
Type in all cases: cell-based
[1] = target: Beta-nerve growth factor (Homo sapiens) (UniProt P01138); assay: Induction of neurotrophic factor mRNA expression in human 1321N1 cells at 100 uM by RT-PCR analysis relative to beta-actin mRNA expression
[2] = target: Beta-nerve growth factor (Homo sapiens) (UniProt P01138); assay: Induction of neurotrophic factor mRNA expression in human 1321N1 cells at 100 uM by RT-PCR analysis
[3] = target: Beta-nerve growth factor (Homo sapiens) (UniProt P01138); assay: Induction of neurotrophic factor mRNA expression in human 1321N1 cells by RT-PCR analysis

Chain of Beta-nerve growth factor (Homo sapiens) (P01138 122-241 limits assumed): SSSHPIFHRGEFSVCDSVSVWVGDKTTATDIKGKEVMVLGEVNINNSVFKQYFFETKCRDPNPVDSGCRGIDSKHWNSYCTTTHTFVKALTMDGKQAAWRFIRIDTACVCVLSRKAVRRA

fold change (FC) [1]	Activity [2]	Activity [3]	SMILES
2.3	–	–	C[C@@H]1C[C@H]2Cc3ncc(-c4ccc5c(n4)C(=O)[C@@H]4C[C@@H](C)C[C@]56NCCC[C@H]46)cc3[C@]3(C1)NCCC[C@H]23
–	inactive	–	C[C@@H]1CC2=C3NC(=O)CC[C@]34C[C@@]3(C1)NC[C@H]4C[C@@H]23
2.4	–	–	C[C@@H]1C[C@H]2CC3=C(CC[C@H](c4cnc5c(c4)[C@@]46C[C@H](C)C[C@@H](C5)[C@H]4CCCN6)N3)[C@]3(C1)NCCC[C@H]23
2.8	–	–	C[C@@H]1C[C@H]2C[C@H]3N[C@H](c4cnc5c(c4)[C@@]46C[C@H](C)C[C@@H](C5)[C@H]4CCCN6)CC[C@H]3[C@]3(C1)NCCC[C@H]23
–	inactive	–	C[C@@H]1CC2=C3NC(=O)CC[C@]34C[C@]3(C1)[C@H]2C[C@@H]4CN3C
3.9	–	Dose-dependent effect	C[C@@H]1C[C@H]2Cc3ncc(-c4ccc5c(n4)C[C@@H]4C[C@@H](C)C[C@]56NCCC[C@H]46)cc3[C@]3(C1)NCCC[C@H]23
